Results on five molecules are retold here after article PMC3966878, “Crystal Structure of ORF210 from E. coli O157:H1 Phage CBA120 (TSP1), a Putative Tailspike Protein” (PLoS ONE, 2014).

The target in data set [1] is T1, TSP1 (ORF210) from CBA120 phage (Escherichia phage Cba120, UniProt G3M189).
T1 construct: full length, 770 residues plus C-terminal 6xHis tag; codon-optimized gene expressed in E. coli BL21; homotrimer, 82 kDa monomer; one Zn2+ per trimer
T1 sequence (G3M189 1-770): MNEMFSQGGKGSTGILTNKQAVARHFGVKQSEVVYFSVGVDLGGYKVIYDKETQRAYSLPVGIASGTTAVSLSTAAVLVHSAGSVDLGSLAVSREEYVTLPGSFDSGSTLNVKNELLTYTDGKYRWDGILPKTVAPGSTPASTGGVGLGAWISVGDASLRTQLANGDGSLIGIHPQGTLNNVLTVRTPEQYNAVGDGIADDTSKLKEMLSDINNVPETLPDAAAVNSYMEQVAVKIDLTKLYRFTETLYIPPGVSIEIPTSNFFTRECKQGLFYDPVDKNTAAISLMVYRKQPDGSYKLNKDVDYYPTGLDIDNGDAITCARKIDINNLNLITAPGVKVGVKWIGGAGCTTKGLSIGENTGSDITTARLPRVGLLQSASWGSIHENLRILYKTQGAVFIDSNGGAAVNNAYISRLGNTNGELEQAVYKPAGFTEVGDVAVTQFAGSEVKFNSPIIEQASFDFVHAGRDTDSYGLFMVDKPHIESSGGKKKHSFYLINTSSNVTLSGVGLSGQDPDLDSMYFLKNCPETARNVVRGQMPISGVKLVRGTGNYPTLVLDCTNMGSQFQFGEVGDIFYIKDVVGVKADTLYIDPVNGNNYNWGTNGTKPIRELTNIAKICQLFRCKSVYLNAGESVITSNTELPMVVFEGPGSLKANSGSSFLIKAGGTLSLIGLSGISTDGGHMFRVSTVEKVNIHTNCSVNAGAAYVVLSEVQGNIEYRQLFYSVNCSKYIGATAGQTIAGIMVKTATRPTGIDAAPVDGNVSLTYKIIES
As to the kind of experiment: X-ray crystal structure (soak), […] Å. In kind it is binding. Conditions: crystal soak in mother liquor with 37% saturated sugar, Tris-HCl pH 7.0-7.6; site on the surface of D3, single subunit (Tyr306, Tyr427, Phe443, Ala430).

Data set [2] addresses T1, TSP1 (ORF210) from CBA120 phage. Description: X-ray crystal structure (soak), […] Å. In kind it is binding. As to conditions: crystal soak in mother liquor with 37% saturated sugar, Tris-HCl pH 7.0-7.6.
Data set [3] deals with the molecule itself. As to the kind of experiment: SEC; analytical gel filtration, Superose 6, 100 ug TSP1, isocratic in PBS; mass from a standard curve of gel filtration standards. For orientation: In gel filtration, larger molecules generally elute earlier.
Data set [4] deals with the molecule itself. Description: crystal structure; hanging drop, 0.1 M Tris-HCl pH 7.0-7.6, 16% PEG 1000, room temperature; space group P212121; MAD phasing on Se-Met crystal; 1.8 A.

For the molecule `OC[C@H]1O[C@H](O[C@H]2[C@H](O)[C@@H](O)[C@@H](O)O[C@@H]2CO)[C@H](O)[C@@H](O)[C@@H]1O` [α-maltose], in data set [1], the “X-ray crystal structure (soak), 1.95 Å” value is 4OJP for TSP1/maltose complex.

`OC[C@H]1O[C@@H](O)[C@H](O)[C@@H](O)[C@@H]1O` [glucose]: the “X-ray crystal structure (soak), 2.0 Å” value in data set [2] (site in D3-D4 hole next to D4, single subunit (Glu639, Lys662, Lys615)) is recorded as 4OJL for TSP1/glucose complex.

Turning to `OC[C@H]1O[C@@H](O[C@H]2[C@H](O)[C@@H](O)[C@@H](O)O[C@@H]2CO)[C@H](O)[C@@H](O)[C@H]1O` [α-lactose], the “X-ray crystal structure (soak), 2.0 Å” value in data set [2] (site deep in D3-D4 hole between two subunits (Val579, Lys577, Asp585)) is on record as 4OJO for TSP1/lactose complex.

B1: TSP1 (tailspike protein 1, ORF210) from bacteriophage CBA120, wild-type, with C-terminal 6X-His tag (natural protein, bacteriophage CBA120 (vB_EcoM_CBA120), UniProt G3M189 1-770, looked up)
chain: T1 sequence (G3M189 1-770)
notes: Tailspike protein 1 (TSP1), open reading frame 210 (tsp1) of the phage CBA120 genome, codon-optimised synthetic gene; the encoded 770 amino acid residues followed by six histidines; A construct with an N-terminal 6X-His tag was dropped; the C-terminal tag construct was used for all experiments; also called CBA120 TSP1; wild-type TSP1; source: E. coli BL21 (pBAD24, arabinose induction), purified …
For B1, the stoichiometry N (in general, the number of molecules, sites or subunits per partner or assembly) in data set [3] is 3.

B2: Selenomethionine derivative of TSP1 (ORF210) from bacteriophage CBA120, with C-terminal 6X-His tag (natural protein, bacteriophage CBA120 (vB_EcoM_CBA120), UniProt G3M189 1-770, looked up)
chain: T1 sequence (G3M189 1-770)
modifications: selenomethionine in place of methionine
notes: Tailspike protein 1 (TSP1), open reading frame 210 (tsp1) of the phage CBA120 genome, same plasmid pBAD24::tsp1 as m1; the encoded 770 amino acid residues followed by six histidines; also called Se-Met TSP1; SeMet TSP1; source: E. coli B834 (methionine auxotroph, SelenoMet media with 40 mg/L selenomethionine), purified as the wild type; not shown: His6, C-terminal, kept
Take B2: the “stoichiometry N” value in data set [4] worked out at 3.
